Results published in paper PMC9491549, “Reverse mutants of the catalytic 19 kDa mutant protein (nanoKAZ/nanoLuc) from Oplophorus luciferase with coelenterazine as preferred substrate” (PLoS ONE, 2022).

Experiments:
[1] = biological target: T1, native Oplophorus luciferase (OpLase) (Oplophorus gracilirostris, UniProt Q9GV45); assay: luminescence inhibition with coelenterazine; assay type: biochemical; conditions: coelenterazine 1.2 × 10^−4 M (so in the source); 1 μg each in 200 μL), 30 mM Tris-HCl, 10 mM EDTA, 1 min preincubation; no inhibitor = 100
T1 construct: 19 kDa and 35 kDa subunits, 106 kDa; with Oplophorus-luciferin 2-monooxygenase non-catalytic subunit
Text: luminescence inhibition with coelenterazine on native Oplophorus luciferase (OpLase)

[2] = biological target: T2, Gaussia luciferase (GLase) (Gaussia princeps (in: crustaceans), UniProt Q9BLZ2); assay: luminescence inhibition with coelenterazine; assay type: biochemical; conditions: coelenterazine 1.2 × 10^−4 M (so in the source); 1 μg each in 200 μL), 30 mM Tris-HCl, 10 mM EDTA, 1 min preincubation; no inhibitor = 100
T2 construct: C-terminal His tag, signal peptide removed by secretion; stably expressed in CHO-K1/dhfr- cells (pcDNA3-hGL-H), Ni column
T2 sequence (Q9BLZ2 18-185): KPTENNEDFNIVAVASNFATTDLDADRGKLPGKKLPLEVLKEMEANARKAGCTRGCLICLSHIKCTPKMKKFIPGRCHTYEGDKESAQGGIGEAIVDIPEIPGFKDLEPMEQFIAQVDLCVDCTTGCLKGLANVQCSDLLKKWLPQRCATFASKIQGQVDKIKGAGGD
Text: luminescence inhibition with coelenterazine on Gaussia luciferase (GLase)

T1 sequence (Q9GV45 28-196): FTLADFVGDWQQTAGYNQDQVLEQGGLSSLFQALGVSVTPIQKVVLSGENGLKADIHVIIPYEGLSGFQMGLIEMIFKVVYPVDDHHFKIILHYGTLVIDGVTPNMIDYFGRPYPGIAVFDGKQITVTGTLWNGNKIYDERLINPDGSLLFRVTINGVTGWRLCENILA
T1 sequence (Q9GV46 40-359 partner): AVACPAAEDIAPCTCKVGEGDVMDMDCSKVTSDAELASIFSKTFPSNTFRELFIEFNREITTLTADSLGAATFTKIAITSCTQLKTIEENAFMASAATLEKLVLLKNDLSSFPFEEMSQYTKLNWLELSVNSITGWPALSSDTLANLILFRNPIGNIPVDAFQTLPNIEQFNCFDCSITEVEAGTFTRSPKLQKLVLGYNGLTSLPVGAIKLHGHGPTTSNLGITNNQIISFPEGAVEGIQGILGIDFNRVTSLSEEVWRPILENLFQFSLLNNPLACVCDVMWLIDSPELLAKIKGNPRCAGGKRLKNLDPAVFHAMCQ

| Relative luminescence activity (Imax, %) / OpLase ^a [1] | Relative luminescence activity (Imax, %) / GLase ^a [2] | Relative luminescence activity (Imax, %) / QL-nanoKAZ ^a [2] | SMILES |
| --- | --- | --- | --- |
| 19.7% | 5.3% | – | O=C1c2cc(-c3ccc(O)cc3)cc(Cc3ccccc3)c2C[C@]1(CO)Cc1ccc(O)cc1 [(S)-HM-daCTZ] |
| 33.5% | 23.5% | – | O=C1c2cc(-c3ccc(O)cc3)cc(Cc3ccccc3)c2C[C@@]1(CO)Cc1ccc(O)cc1 [(R)-HM-daCTZ] |
| 5.1% | 0.5% | – | O=C1c2cc(-c3ccc(O)cc3)cc(Cc3ccccc3)c2C[C@H]1Cc1ccc(O)cc1 [(R)-daCTZ] |
| 2.1% | – | 0.4% | O=C1c2cc(-c3ccc(O)cc3)cc(Cc3ccccc3)c2C[C@@H]1Cc1ccc(O)cc1 [(S)-daCTZ] |
